Measured values from ChEMBL document CHEMBL6177929, “Synthesis and screening of novel 2,4-bis substituted quinazolines as tubulin polymerization promoters and antiproliferative agents” (RSC Med Chem, 2025).
Active and inactive are the calls of the source. The calls are words filed in the database; no cut-off is given here.

Columns and labels:
HCT-116 = assay: Antiproliferative activity against human HCT-116 cells assessed as reduction in cell viability incubated for 48 hrs by MTT assay; type: functional, cell-based; details: HCT-116, 48 h
SH-SY5Y [1] = assay: Antiproliferative activity against human SH-SY5Y cells assessed as reduction in cell viability incubated for 48 hrs by MTT assay; type: functional, cell-based
MCF7 = assay: Antiproliferative activity against human MCF7 cells assessed as reduction in cell viability incubated for 48 hrs by MTT assay; type: functional, cell-based; details: MCF7, 48 h
SH-SY5Y [2] = assay: Induction of apoptosis in human SH-SY5Y cells assessed as necrotic cells at 5 uM incubated for 48 hrs by Annexin V-FITC/PI staining based flow cytometry analysis (reference value: 0.7%); type: functional
SH-SY5Y [3] = assay: Induction of cell cycle arrest in human SH-SY5Y cells assessed as accumulation of cells at G2/M phase at 5 uM incubated for 48 hrs by LSRFortessa cell analyzer (reference value: 28.4%); type: functional
SH-SY5Y [4] = assay: Induction of apoptosis in human SH-SY5Y cells assessed as late apoptotic cells at 5 uM incubated for 48 hrs by Annexin V-FITC/PI staining based flow cytometry analysis (reference value: 3.0%); type: functional
Tubulin (Homo sapiens) [5] = target: T1, Tubulin (Homo sapiens) (UniProt P68371+Q9H4B7+P0DPH7+P68366+Q13509+Q71U36+P04350+Q3ZCM7+P07437+P68363+Q9BQE3+Q6PEY2+Q13885+Q9BVA1+Q9BUF5); assay: Inhibition of tubulin polymerization (unknown origin) at 1 uM incubated for 60 mins measured every 1 mins by spectrophotometric analysis; type: protein-complex assay
SH-SY5Y [6] = assay: Induction of cell cycle arrest in human SH-SY5Y cells assessed as accumulation of cells at S phase at 5 uM incubated for 48 hrs by LSRFortessa cell analyzer (reference value: 16.2%); type: functional
SH-SY5Y [7] = assay: Induction of apoptosis in human SH-SY5Y cells assessed as viable cells at 5 uM incubated for 48 hrs by Annexin V-FITC/PI staining based flow cytometry analysis (reference value: 91.3%); type: functional; details: read-out: Activity
Tubulin (Homo sapiens) [8] = target: T1, Tubulin (Homo sapiens); assay: Inhibition of tubulin polymerization (unknown origin) at 5 uM incubated for 60 mins measured every 1 mins by spectrophotometric analysis; type: protein-complex assay
SH-SY5Y [9] = assay: Induction of mitochondrial membrane potential in human SH-SY5Y cells assessed as mitochondria depolarization at 5 uM incubated for 48 hrs by synergy H1 microplate reader analysis; type: functional, cell-based
HEK-293T = assay: Cytotoxicity against human HEK293T cells at 25 uM incubated for 48 hrs by MTT assay; type: toxicity, cell-based
SH-SY5Y [10] = assay: Induction of apoptosis in human SH-SY5Y cells assessed as early apoptotic cells at 5 uM incubated for 48 hrs by Annexin V-FITC/PI staining based flow cytometry analysis (reference value: 2.0%); type: functional
SH-SY5Y [11] = assay: Induction of cell cycle arrest in human SH-SY5Y cells assessed as accumulation of cells at G1/G0 phase at 5 uM incubated for 48 hrs by LSRFortessa cell analyzer (reference value: 50.1%); type: functional

SMILES	IC50 (HCT-116)	IC50 (SH-SY5Y [1])	IC50 (MCF7)	inhibition (Tubulin (Homo sapiens) [5])	inhibition (Tubulin (Homo sapiens) [8])	Activity (SH-SY5Y [2])	Activity (SH-SY5Y [3])	Activity (SH-SY5Y [4])	Activity (SH-SY5Y [6])	viability at 5 µM (SH-SY5Y [7])	Activity (SH-SY5Y [9])	Activity (HEK-293T)	Activity (SH-SY5Y [10])	Activity (SH-SY5Y [11])
c1ccc2c(-n3cnnc3)nc(-n3cnnc3)nc2c1	17.5 µM	15.3 µM	19 µM											
c1ccc2c(-n3ccnc3)nc(-n3ccnc3)nc2c1	9.43 µM	15.7 µM	11.5 µM											
c1ccc(CN2CCN(c3nc(N4CCN(Cc5ccccc5)CC4)c4ccccc4n3)CC2)cc1	> 25 µM	> 25 µM	21.8 µM											
c1ccc2c(-n3nnc4ccccc43)nc(-n3nnc4ccccc43)nc2c1	> 25 µM	11 µM	15.3 µM											
c1ccc(N2CCN(c3nc(N4CCN(c5ccccc5)CC4)c4ccccc4n3)CC2)cc1	9.19 µM	> 25 µM	12.8 µM											
COc1cc2c(c(OC)c1OC)-c1ccc(OC)c(=O)cc1[C@@H](NC(C)=O)CC2 [COLCHICINE]	1.65 µM	6.82 µM	4.48 µM			3.9%	90%	54.5%	4.1%	35.1%			6.5%	5.1%

More lines, main results first:

IC50 (HCT-116)	IC50 (SH-SY5Y [1])	IC50 (MCF7)	inhibition (Tubulin (Homo sapiens) [5])	inhibition (Tubulin (Homo sapiens) [8])	SMILES	Activity (SH-SY5Y [2])	Activity (SH-SY5Y [3])	Activity (SH-SY5Y [4])	Activity (SH-SY5Y [6])	viability at 5 µM (SH-SY5Y [7])	Activity (SH-SY5Y [9])	Activity (HEK-293T)	Activity (SH-SY5Y [10])	Activity (SH-SY5Y [11])
13.8 µM	> 25 µM	23.1 µM			COc1cc2c(-n3cnnc3)nc(-n3cnnc3)nc2c(OC)c1OC									
20.7 µM	23.8 µM	> 25 µM			CN1CCN(c2nc(N3CCN(C)CC3)c3ccccc3n2)CC1									
2.65 µM	9.91 µM	4.25 µM	inactive	Active	COc1cc2c(-n3ccnc3)nc(-n3ccnc3)nc2c(OC)c1OC	6.8%	79%	50.3%	6.8%	33.3%	Active	Non-toxic	9.6%	11.3%
21.3 µM	> 25 µM	24.1 µM			COc1cc2c(N3CCN(C)CC3)nc(N3CCN(C)CC3)nc2c(OC)c1OC									
> 25 µM	15.9 µM	18.8 µM			COc1cc2c(N3CCOCC3)nc(N3CCOCC3)nc2c(OC)c1OC									
> 25 µM	18.9 µM	14.6 µM			c1ccc2c(N3CCOCC3)nc(N3CCOCC3)nc2c1									
7.25 µM	8.14 µM	3.45 µM			COc1cc2c(-n3nnc4ccccc43)nc(-n3nnc4ccccc43)nc2c(OC)c1OC	2%	8.4%	51.8%	7.7%	35.9%	inactive	Non-toxic	10.3%	78.9%
